Measurements: article PMC4680847 (Structure (London, England : 1993), 2015)
Residue numbers refer to the chain shown, from its start. Read-outs that look alike come from different tables or passages of the source.

Columns and labels:
Type in all cases: binding
RNase A [1] = molecular target: T1, RNase A (Bos taurus, UniProt P61823); experiment: ITC
T1 sequence (P61823 27-150): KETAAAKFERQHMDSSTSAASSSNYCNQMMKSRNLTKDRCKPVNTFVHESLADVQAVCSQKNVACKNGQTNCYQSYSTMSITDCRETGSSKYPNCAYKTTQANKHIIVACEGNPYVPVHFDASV

RNase A [2] = molecular target: T2, RNase A (Bos taurus, UniProt P61823, A135G); experiment: crystal structure
T2 sequence (P61823 27-150 A135G): T1 sequence (P61823 27-150) with A109G

RNase A [3] = molecular target: T2, RNase A; experiment: crystal structure; remark: listed apart in the source

Row | Kd (RNase A [1]) [µM] | Kd (RNase A [2]) [µM] | Kd (RNase A [3]) [µM] | Structure (SMILES)
1 | 67 ± 6 | 50 ± 8 |  | O=c1ccn([C@@H]2O[C@H](CO)[C@@H](OP(=O)(O)O)[C@H]2O)c(=O)[nH]1 [3′-UMP]
2 | 105 ± 1 |  | 440 ± 26 | Nc1ncnc2c1ncn2[C@@H]1O[C@H](COP(=O)(O)O)[C@@H](O)[C@H]1O [5′-AMP]
